# EP0140492B1 (WARNER-LAMBERT COMPANY, priority 1983, dated 1985)
# Like-named read-outs stand apart in the source and are kept apart here. Marks after values point to notes of the source that are not given here.
# Test: Plasma levels of isoxicam and bioavailability parameters after a single oral dose to beagle dogs
# Format: in vivo
# Settings: for Plasma levels of isoxicam / Plasma levels of isoxicam, Mean: 100 mg/dog oral (isoxicam equivalents); for AUC(0-inf) / half-life / Cmax / Tmax: dog, in vivo, po, 100 mg; for Tmax: read-out: Tmax; for Plasma levels of isoxicam, Mean: mean of dogs
# Experimental: The range for the individual animals was 51.4 to 63.0 µg/ml with three animals having a peak time of two hours and the final animal at eight hours. These plasma levels were considerably higher when compared to micronized isoxicam. […] Peak plasma concentrations for individual animals ranged from […] between three and six hours postdose.
# Areas under the plasma concentrations versus time curve (AUC^0-∞) were calculated using the trapezoidal rule and extrapolated to infinity with the appropriate elimination rate constants.
# [1] = Mean of four dogs, oral 100 mg (free acid equivalents)
# [2] = dog 1930, oral 100 mg (free acid equivalents)
# [3] = dog 1942, oral 100 mg (free acid equivalents)
# [4] = dog 117668, oral 100 mg (free acid equivalents)
# [5] = dog 120064, oral 100 mg (free acid equivalents)
compound,measurement,setting,value
"Cc1cc(NC(=O)C2=C(O)c3ccccc3S(=O)(=O)N2C)no1 [arginine isoxicamate, L-arginine isoxicamate]",Plasma levels of isoxicam,"dog 1930, time 0.5 h postdose",29.6 µg/mL
same,Plasma levels of isoxicam,"dog 1930, time 1.0 h postdose",43.4 µg/mL
same,Plasma levels of isoxicam,"dog 1930, time 2.0 h postdose",51.4 µg/mL
same,Plasma levels of isoxicam,"dog 1930, time 3.0 h postdose",47.5 µg/mL
same,Plasma levels of isoxicam,"dog 1930, time 4.0 h postdose",48.9 µg/mL
same,Plasma levels of isoxicam,"dog 1930, time 6.0 h postdose",48.3 µg/mL
same,Plasma levels of isoxicam,"dog 1930, time 8.0 h postdose",42.6 µg/mL
same,Plasma levels of isoxicam,"dog 1930, time 12.0 h postdose",37.8 µg/mL
same,Plasma levels of isoxicam,"dog 1930, time 24.0 h postdose",32.8 µg/mL
same,Plasma levels of isoxicam,"dog 1930, time 32.0 h postdose",25.2 µg/mL
same,Plasma levels of isoxicam,"dog 1930, time 48.0 h postdose",25.0 µg/mL
same,Plasma levels of isoxicam,"dog 1930, time 72.0 h postdose",14.6 µg/mL
same,Plasma levels of isoxicam,"dog 1930, time 96.0 h postdose",10.2 µg/mL
same,Plasma levels of isoxicam,"dog 1930, time 192.0 h postdose",1.56 µg/mL
same,Plasma levels of isoxicam,"dog 1930, time 240.0 h postdose",0.89 µg/mL
same,Plasma levels of isoxicam,"dog 1942, time 0.5 h postdose",7.99 µg/mL
same,Plasma levels of isoxicam,"dog 1942, time 1.0 h postdose",28.1 µg/mL
same,Plasma levels of isoxicam,"dog 1942, time 2.0 h postdose",58.6 µg/mL
same,Plasma levels of isoxicam,"dog 1942, time 3.0 h postdose",51.7 µg/mL
same,Plasma levels of isoxicam,"dog 1942, time 4.0 h postdose",53.9 µg/mL
same,Plasma levels of isoxicam,"dog 1942, time 6.0 h postdose",50.5 µg/mL
same,Plasma levels of isoxicam,"dog 1942, time 8.0 h postdose",42.2 µg/mL
same,Plasma levels of isoxicam,"dog 1942, time 12.0 h postdose",39.4 µg/mL
same,Plasma levels of isoxicam,"dog 1942, time 24.0 h postdose",35.6 µg/mL
same,Plasma levels of isoxicam,"dog 1942, time 32.0 h postdose",25.7 µg/mL
same,Plasma levels of isoxicam,"dog 1942, time 48.0 h postdose",25.5 µg/mL
same,Plasma levels of isoxicam,"dog 1942, time 72.0 h postdose",17.1 µg/mL
same,Plasma levels of isoxicam,"dog 1942, time 96.0 h postdose",8.96 µg/mL
same,Plasma levels of isoxicam,"dog 1942, time 153.5 h postdose",2.34 µg/mL
same,Plasma levels of isoxicam,"dog 1942, time 192.0 h postdose",1.28 µg/mL
same,Plasma levels of isoxicam,"dog 1942, time 240.0 h postdose",0.60 µg/mL
same,Plasma levels of isoxicam,"dog 117668, row 192.0, actual time=193 hours",0.85* µg/ml
same,Plasma levels of isoxicam,"dog 117668, time 0.5 h postdose",22.8 µg/mL
same,Plasma levels of isoxicam,"dog 117668, time 1.0 h postdose",42.6 µg/mL
same,Plasma levels of isoxicam,"dog 117668, time 3.0 h postdose",55.1 µg/mL
same,Plasma levels of isoxicam,"dog 117668, time 4.0 h postdose",59.3 µg/mL
same,Plasma levels of isoxicam,"dog 117668, time 6.0 h postdose",50.2 µg/mL
same,Plasma levels of isoxicam,"dog 117668, time 8.0 h postdose",63.0 µg/mL
same,Plasma levels of isoxicam,"dog 117668, time 24.0 h postdose",30.5 µg/mL
same,Plasma levels of isoxicam,"dog 117668, time 32.0 h postdose",29.6 µg/mL
same,Plasma levels of isoxicam,"dog 117668, time 48.0 h postdose",18.6 µg/mL
same,Plasma levels of isoxicam,"dog 117668, time 72.0 h postdose",10.7 µg/mL
same,Plasma levels of isoxicam,"dog 117668, time 96.0 h postdose",5.10 µg/mL
same,Plasma levels of isoxicam,"dog 117668, time 153.5 h postdose",1.27 µg/mL
same,Plasma levels of isoxicam,"dog 117668, time 240.0 h postdose",0.51 µg/mL
same,Plasma levels of isoxicam,"dog 120064, row 192.0, actual time=193 hours",2.17* µg/ml
same,Plasma levels of isoxicam,"dog 120064, time 0.5 h postdose",1.11 µg/mL
same,Plasma levels of isoxicam,"dog 120064, time 1.0 h postdose",15.5 µg/mL
same,Plasma levels of isoxicam,"dog 120064, time 2.0 h postdose",51.8 µg/mL
same,Plasma levels of isoxicam,"dog 120064, time 3.0 h postdose",46.3 µg/mL
same,Plasma levels of isoxicam,"dog 120064, time 4.0 h postdose",50.5 µg/mL
same,Plasma levels of isoxicam,"dog 120064, time 6.0 h postdose",49.6 µg/mL
same,Plasma levels of isoxicam,"dog 120064, time 8.0 h postdose",42.0 µg/mL
same,Plasma levels of isoxicam,"dog 120064, time 24.0 h postdose",31.3 µg/mL
same,Plasma levels of isoxicam,"dog 120064, time 32.0 h postdose",34.8 µg/mL
same,Plasma levels of isoxicam,"dog 120064, time 48.0 h postdose",21.5 µg/mL
same,Plasma levels of isoxicam,"dog 120064, time 72.0 h postdose",17.6 µg/mL
same,Plasma levels of isoxicam,"dog 120064, time 96.0 h postdose",9.39 µg/mL
same,Plasma levels of isoxicam,"dog 120064, time 153.5 h postdose",3.52 µg/mL
same,Plasma levels of isoxicam,"dog 120064, time 240.0 h postdose",1.26 µg/mL
same,AUC(0-inf),[1],2840 µg·h/mL
same,half-life,"Mean of four dogs, oral 100 mg (free acid equivalents), elimination half-life, read-out: Half-life (converted)",36.2 h
same,Cmax,"Mean of four dogs, oral 100 mg (free acid equivalents), read-out: Cmax",55300 ng/mL
same,Tmax,[1],3 h
same,AUC(0-inf),[2],2910 µg·h/mL
same,half-life,"dog 1930, oral 100 mg (free acid equivalents), elimination half-life, read-out: Half-life (converted)",38.8 h
same,Cmax,"dog 1930, oral 100 mg (free acid equivalents), read-out: Cmax",51400 ng/mL
same,Tmax,[2],2 h
same,AUC(0-inf),[3],2920 µg·h/mL
same,half-life,"dog 1942, oral 100 mg (free acid equivalents), elimination half-life, read-out: Half-life (converted)",34.4 h
same,Cmax,"dog 1942, oral 100 mg (free acid equivalents), read-out: Cmax",58600 ng/mL
same,Tmax,[3],2 h
same,AUC(0-inf),[4],2590 µg·h/mL
same,half-life,"dog 117668, oral 100 mg (free acid equivalents), elimination half-life, read-out: Half-life (converted)",27 h
same,Cmax,"dog 117668, oral 100 mg (free acid equivalents), read-out: Cmax",59300 ng/mL
same,Tmax,[4],6 h
same,AUC(0-inf),[5],2950 µg·h/mL
same,half-life,"dog 120064, oral 100 mg (free acid equivalents), elimination half-life, read-out: Half-life (converted)",44.8 h
same,Cmax,"dog 120064, oral 100 mg (free acid equivalents), read-out: Cmax",51800 ng/mL
same,Tmax,[5],2 h
same,Cmax,"four dogs, 100 mg oral, read-out: Mean Cmax",56200 ± 5600 ng/mL
same,half-life,"four dogs, 100 mg oral, read-out: Mean half-lives (elimination, linear regression of semilogarithmic data) (converted)",36.2 ± 7.5 h
same,mean AUC^0-∞,"four dogs, 100 mg oral, trapezoidal rule extrapolated to infinity",2840 ± 170 µg·h/mL
same,"Plasma levels of isoxicam, Mean",time 0.5 h postdose,15400 ng/mL
same,"Plasma levels of isoxicam, Mean",time 1.0 h postdose,32400 ng/mL
same,"Plasma levels of isoxicam, Mean",time 2.0 h postdose,53900 ng/mL
same,"Plasma levels of isoxicam, Mean",time 3.0 h postdose,50200 ng/mL
same,"Plasma levels of isoxicam, Mean",time 4.0 h postdose,53200 ng/mL
same,"Plasma levels of isoxicam, Mean",time 6.0 h postdose,49600 ng/mL
same,"Plasma levels of isoxicam, Mean",time 8.0 h postdose,47400 ng/mL
same,"Plasma levels of isoxicam, Mean",time 12.0 h postdose,38600 ng/mL
same,"Plasma levels of isoxicam, Mean",time 24.0 h postdose,32600 ng/mL
same,"Plasma levels of isoxicam, Mean",time 32.0 h postdose,28800 ng/mL
same,"Plasma levels of isoxicam, Mean",time 48.0 h postdose,22600 ng/mL
same,"Plasma levels of isoxicam, Mean",time 72.0 h postdose,15000 ng/mL
same,"Plasma levels of isoxicam, Mean",time 96.0 h postdose,8410 ng/mL
same,"Plasma levels of isoxicam, Mean",time 153.5 h postdose,2460 ng/mL
same,"Plasma levels of isoxicam, Mean",time 192.0 h postdose (two dogs actually 193 hours),1460 ng/mL
same,"Plasma levels of isoxicam, Mean",time 240.0 h postdose,820 ng/mL
same,mean peak plasma concentration,"reached at two hours postdose, 100 mg (free acid equivalents) per oral dose, dogs",53.9±4.0 Ilg/ml
same,peak time,"the final (fourth) animal, 100 mg oral",eight
same,peak time,"three animals of four, 100 mg oral",two
